From paper PMC7178834, “Antiproliferative benzothiazoles incorporating a trimethoxyphenyl scaffold as novel colchicine site tubulin polymerisation inhibitors” (Journal of Enzyme Inhibition and Medicinal Chemistry, 2020)

Assays:
[1] = test system: 22RV1 cells; experiment: MTT antiproliferative assay, 22RV1 cells; type: cell-based; settings: for IC50: MTT assay, exposure for 72 h
Protocol: (§1) PC3, C42B, 22RV1, and LNCAP cell lines were cultured in an atmosphere containing 5% CO2 at 37 °C, with RPMI-1640 medium with 10% foetal bovine serum, 100 U/ml penicillin and 0.1 mg/ml streptomycin. Cells were seeded at a density of 1500 per well in 96-well plates for 72 h. Then, 20 μL MTT (thiazolyl blue tetrazolium bromide) solution was added to each well, and incubated for 4 h at 37 °C. 150 μL DMSO was added to each well to dissolve the formazan after removing the liquid, the absorbance was determined at 570 nm.
To discovery novel anti-prostate cancer agents and tubulin polymerisation inhibitors, we evaluated the antiproliferative activity of all benzothiazole derivatives 9a∼9k and 12a∼12d against a prostate cancer cell line 22RV1 using the 3–(4,5-dimethyl-2-thiazolyl)-2,5-diphenyl-2-H-tetrazolium bromide (MTT) assay. Based on previous references, [5]-fluorouracil (5-Fu) and was usually selected as a reference drug in the MTT assay to evaluate the antiproliferative activity of synthetic benzothiazole derivatives[26]^,[27]. Therefore, 5-Fu was used as the control drug in this work. In addition, compound 4 was also the control drug to compare the antiproliferative activity.

[2] = test system: PC3 cells; experiment: MTT antiproliferative assay, PC3 cells; type: cell-based; settings: Homo sapiens, PC-3
Protocol: as §1
(§2) Compound 12a was further examined for possible cytotoxicity against RWPE-1 (normal human prostatic cell line). […] To evaluate its antiproliferative activity against other prostate cancer cell lines, C42B, LNCAP and PC3 cells were selected to perform MTT assay.

[3] = test system: LNCAP cells; experiment: MTT antiproliferative assay, LNCAP cells; type: cell-based; settings: Homo sapiens
Protocol: as §1, §2

[4] = test system: C42B cells; experiment: MTT antiproliferative assay, C42B cells; type: cell-based
Protocol: as §1, §2

[5] = Cytotoxicity against normal prostatic cell line RWPE-1; type: cell-based; settings: RWPE-1 normal prostatic cells; normal human prostatic cell line
Protocol: as §1, §2

[6] = test system: tubulin; experiment: In vitro tubulin polymerisation assay; type: biochemical; settings: tubulin 5.6 mg/ml in PEM buffer, read-out: Tubulin polymerisation inhibition IC50
Protocol: Tubulin (5.6 mg/ml) was resuspended in PEM buffer (containing 80 mM PIPES, […], 1 mM EGTA, 10.2% glycerol, 0.5 mM MgCl2) and then was preincubated with compound 12a, colchicine or vehicle DMSO on ice. The reaction was monitored by a spectrophotometer in […] at 420 nm (excitation wavelength is 340 nm).
The in vitro tubulin polymerisation inhibition activity of compound 12a was evaluated because of its best antiproliferative activity results among all benzothiazole hybrids. When tubulin was incubated with the tested compound 12a, the increased tendency of the fluorescence intensity was obviously slowed down compared with the control.

[7] = test system: microtubule network in PC3 cells; experiment: Immunofluorescence staining of microtubules in PC3 cells; type: cell-based; settings: 48 h
Protocol: PC3 cells were seeded on the slices and incubated overnight. Then, cells were treated with different concentrations of 12a. After 48 h, slices were fixed by 4% paraformaldehyde for 15 min after washed by PBS for 3 times. 0.5% Triton-X-100 was added and shaked for 20 min. 0.1% BSA was used to block for 30 min and then removed. The slices were added β-tubulin antibody (1:100) and incubated overnight. Then slices were washed by PBST 3 times, bind with secondary antibody with FITC signal (1:500) in a dark. DAPI was used to stain for 3 min and then removed. After that, images were captured by Laser scanning confocal microscope (Nikon, Japan).
As the microtubule system played an important role in the maintenance of cell shape and basic cellular functions, an immunofluorescence staining assay was performed to study whether benzothiazole hybrid 12a could disrupt the microtubule dynamics in living cells.

[8] = test system: colchicine-binding site of β-tubulin; experiment: EBI competition assay in PC3 cells; type: cell-based; settings: preincubation at 10 μM, Western blot
Protocol: 6-Well plates were seeded with PC3 cells for 24 h. Then, cells were incubated with compound 12a, colchicine or DMSO for 2 h and afterward treated with EBI ([…]) for 2 h. Then, the cells were harvested and lysed. Cell extracts were used for Western blotting analysis.
(§3) Cellular protein lysates were denatured in loading buffer at 100 °C prior to adding into SDS-PAGE. Proteins were transferred to nitrocellulose membranes, probed with indicated antibodies, and visualised by an enhanced chemiluminescence detection system. The western blotting bands were semi-quantified using Image J and adjusted for loading control.
In order to evaluate whether benzothiazole hybrid 12a directly binds to tubulin at the colchicine binding site, we carried out N,N′-ethylenebis(iodoacetamide) (EBI) competition assay in PC3 cells according to previously published references[29]^,[30]. EBI is an alkylating agent that has the property to specifically cross-link the Cys239 and the Cys354 residues of β-tubulin involved in the colchicine-binding site[31]. The occupancy of colchicine-binding site by tubulin polymerisation inhibitors could inhibit the formation of the EBI: β-tubulin adduct.

[9] = test system: 22RV1 cells; experiment: DAPI staining, 22RV1 cells; type: cell-based; settings: 22RV1 cells, 1, 2 and 4 μM, 48 h
Protocol: (§4) Cells were seeded on a 6-well plate (2 × 10^5/well) and treated with the test compound after the incubation for 24 h. Then, cells were stained by DAPI (4′,6-diamidino-2-phenylindole) in the dark for 30 min.

[10] = test system: PC3 cells; experiment: DAPI staining, PC3 cells; type: cell-based; settings: PC3 cells, 1, 2 and 4 μM, 48 h
Protocol: as §4

[11] = test system: apoptosis-related proteins (Bcl-2 and Cleaved-parp); experiment: Western blot of apoptosis-related proteins, 22RV1 cells; type: cell-based; settings: concentration-dependent
Protocol: as §3
(§5) Bcl-2 family proteins are key regulators of apoptosis and overexpression of the prominent pro-survival Bcl-2 family members like Bcl-2 is a common feature responsible for deregulation of apoptosis in prostate cancer cells. In order to investigate the apoptosis effects of compound 12a, the expression of apoptosis-related proteins (Bcl-2 and Cleaved-parp) were tested. As shown in the Figure 6(B), the expression level of Bcl-2 was decreased and the expression level of Cleaved-parp was increased in a concentration-dependent manner against prostate cancer (22RV1 cells and PC3 cells).

[12] = test system: apoptosis-related proteins (Bcl-2 and Cleaved-parp); experiment: Western blot of apoptosis-related proteins, PC3 cells; type: cell-based; settings: concentration-dependent
Protocol: as §3, §5

[13] = test system: human cervical cancer cell line ME-180; design: method as in PMID 24332497; settings: read-out: Cytotoxicity IC50, ME-180; cited from earlier work

Question: With COc1cc(N(Cc2c(C)noc2C)C(=O)CSc2nc3ccccc3s2)cc(OC)c1OC [Compound 12a, 2-(Benzo[d]thiazol-2-ylthio)-N-((3,5-dimethylisoxazol-4-yl)methyl)-N-(3,4,5-trimethoxyphenyl)acetamide] as the compound, how does the IC50 ([1]; Homo sapiens, 22Rv1, 72 h) read?
Answer: 2.13 ± 0.24 µM

Question: And the IC50 [2]?
Answer: 2.04 µM

Question: And the IC50 [3]?
Answer: 4.31 µM

Question: And the IC50 [4]?
Answer: 2.81 µM

Question: What about the IC50 at 72 h [5] of the same compound?
Answer: > 20 µM

Question: What about the IC50 [6] of the same compound?
Answer: 2.87 µM

Question: And the “Effect on interphase microtubules” value ([7]; 1 μM)?
Answer: moderately depolymerised interphase microtubules

Question: And the “Effect on interphase microtubules” value ([7]; 4 μM)?
Answer: much stronger depolymerisation effects

Question: What about the “Formation of the EBI: β-tubulin adduct” value [8] of the same compound?
Answer: prevented the formation of the EBI: β-tubulin adduct

Question: What about the “Morphological changes (DAPI staining)” value [9] of the same compound?
Answer: characteristic apoptotic morphological changes were observed

Question: And the “Morphological changes (DAPI staining)” value [10]?
Answer: characteristic apoptotic morphological changes were observed

Question: What about the “Expression level of Bcl-2” value [11] of the same compound?
Answer: decreased

Question: And the “Expression level of Cleaved-parp” value [11]?
Answer: increased

Question: And the “Expression level of Bcl-2” value [12]?
Answer: decreased

Question: What about the “Expression level of Cleaved-parp” value [12] of the same compound?
Answer: increased

Question: Which IC50 ([1]; Homo sapiens, 22Rv1, 72 h) does the source give for COc1ccc(CN(C(=O)CSc2nc3ccccc3s2)c2cc(OC)c(OC)c(OC)c2)cc1 [Compound 9h, 2-(Benzo[d]thiazol-2-ylthio)-N-(4-methoxybenzyl)-N-(3,4,5-trimethoxyphenyl)acetamide] here?
Answer: 5.24 µM

Question: With COc1cc(N(Cc2ccccc2)C(=O)CSc2nc3ccccc3s2)cc(OC)c1OC [Compound 9f, 2-(Benzo[d]thiazol-2-ylthio)-N-benzyl-N-(3,4,5-trimethoxyphenyl)acetamide] as the compound, how does the IC50 ([1]; Homo sapiens, 22Rv1, 72 h) read?
Answer: 9.06 ± 0.17 µM

Question: Which results are given for COc1cc(N(Cc2ccc(Cl)cc2)C(=O)CSc2nc3ccccc3s2)cc(OC)c1OC [Compound 9c, 2-(Benzo[d]thiazol-2-ylthio)-N-(4-chlorobenzyl)-N-(3,4,5-trimethoxyphenyl)acetamide]?
Answer: IC50 ([1]; Homo sapiens, 22Rv1, 72 h): > 12 µM; IC50 [1]: 12.2 ± 0.58 µM

Question: For COc1cc(N(Cc2ccc(F)cc2)C(=O)CSc2nc3ccccc3s2)cc(OC)c1OC [Compound 9a, 2-(Benzo[d]thiazol-2-ylthio)-N-(4-fluorobenzyl)-N-(3,4,5-trimethoxyphenyl)acetamide], which IC50 ([1]; Homo sapiens, 22Rv1, 72 h) is on record?
Answer: 16.2 ± 0.84 µM

Question: Which results are given for COc1ccc(CN(C(=O)CSc2nc3ccccc3o2)c2cc(OC)c(OC)c(OC)c2)cc1 [Compound 4, reference compound]?
Answer: IC50 ([1]; Homo sapiens, 22Rv1): 6.48 ± 0.25 µM; IC50 [2]: 3.53 µM; IC50 [3]: 10 µM

Question: With COc1ccc(CN(C(=O)CSc2nc3ccccc3s2)c2ccccc2)cc1 [Compound 9k, 2-(Benzo[d]thiazol-2-ylthio)-N-(4-methoxybenzyl)-N-phenylacetamide] as the compound, how does the IC50 ([1]; Homo sapiens, 22Rv1, 72 h) read?
Answer: > 20 µM

Question: And the melting point?
Answer: 109 to 110 °C

Question: With COc1cccc(CN(C(=O)CSc2nc3ccccc3s2)c2cc(OC)c(OC)c(OC)c2)c1 [Compound 9g, 2-(Benzo[d]thiazol-2-ylthio)-N-(3-methoxybenzyl)-N-(3,4,5-trimethoxyphenyl)acetamide] as the compound, how does the IC50 ([1]; Homo sapiens, 22Rv1, 72 h) read?
Answer: 7.37 ± 0.56 µM

Question: For COc1cc(N(Cc2ccncc2)C(=O)CSc2nc3ccccc3s2)cc(OC)c1OC [Compound 12b, 2-(Benzo[d]thiazol-2-ylthio)-N-(pyridin-4-ylmethyl)-N-(3,4,5-trimethoxyphenyl)acetamide], which IC50 ([1]; Homo sapiens, 22Rv1, 72 h) is on record?
Answer: 5.09 ± 0.62 µM

Question: With COc1cc(N(Cc2cccc(Cl)c2)C(=O)CSc2nc3ccccc3s2)cc(OC)c1OC [Compound 9b, 2-(Benzo[d]thiazol-2-ylthio)-N-(3-chlorobenzyl)-N-(3,4,5-trimethoxyphenyl)acetamide] as the compound, how does the “Fold activity loss when p-Br replaced with m-Cl (9d vs. 9b)” value ([1]; 22RV1 cells, ratio of IC50 values) read?
Answer: over 3 fold

Question: And the IC50 ([1]; Homo sapiens, 22Rv1, 72 h)?
Answer: > 12 µM

Question: What about the IC50 [1] of the same compound?
Answer: 19.1 ± 1.15 µM

Question: With COc1ccc(CN(C(=O)CSc2nc3ccccc3s2)c2ccc(Cl)c(Cl)c2)cc1 [Compound 9j, 2-(Benzo[d]thiazol-2-ylthio)-N-(3,4-dichlorophenyl)-N-(4-methoxybenzyl)acetamide] as the compound, how does the IC50 ([1]; Homo sapiens, 22Rv1, 72 h) read?
Answer: > 20 µM

Question: For O=c1[nH]cc(F)c(=O)[nH]1 [Compound 5-FU, [5]-fluorouracil, reference compound], which IC50 [1] is on record?
Answer: 18.3 ± 1.27 µM

Question: With CCOc1ccc2nc(N3CN(c4ccccc4)c4ccccc4C3=O)sc2c1 [Compound 3] as the compound, how does the IC50 [13] read?
Answer: 4.01 µM

Question: Which IC50 ([1]; Homo sapiens, 22Rv1, 72 h) does the source give for COc1ccc(CN(C(=O)CSc2nc3ccccc3s2)c2ccc(C)cc2)cc1 [Compound 9i, 2-(Benzo[d]thiazol-2-ylthio)-N-(4-methoxybenzyl)-N-(p-tolyl)acetamide] here?
Answer: > 20 µM

Question: For COc1cc(N(Cc2ccc(C)cc2)C(=O)CSc2nc3ccccc3s2)cc(OC)c1OC [Compound 9e, 2-(Benzo[d]thiazol-2-ylthio)-N-(4-methylbenzyl)-N-(3,4,5-trimethoxyphenyl)acetamide], which IC50 ([1]; Homo sapiens, 22Rv1, 72 h) is on record?
Answer: 8.25 ± 0.43 µM

Question: For COc1cc(N(Cc2ccc(Br)cc2)C(=O)CSc2nc3ccccc3s2)cc(OC)c1OC [Compound 9d, 2-(Benzo[d]thiazol-2-ylthio)-N-(4-bromobenzyl)-N-(3,4,5-trimethoxyphenyl)acetamide], which IC50 ([1]; Homo sapiens, 22Rv1, 72 h) is on record?
Answer: 6.2 ± 0.71 µM

Question: For COc1cc(N(Cc2ccc3ccccc3c2)C(=O)CSc2nc3ccccc3s2)cc(OC)c1OC [Compound 12d, 2-(Benzo[d]thiazol-2-ylthio)-N-(naphthalen-2-ylmethyl)-N-(3,4,5-trimethoxyphenyl)acetamide], which IC50 ([1]; Homo sapiens, 22Rv1, 72 h) is on record?
Answer: 6.93 ± 0.46 µM

Question: For COc1cc(N(Cc2ccc(Cl)nc2)C(=O)CSc2nc3ccccc3s2)cc(OC)c1OC [Compound 12c, 2-(Benzo[d]thiazol-2-ylthio)-N-((6-chloropyridin-3-yl)methyl)-N-(3,4,5-trimethoxyphenyl)acetamide], which IC50 ([1]; Homo sapiens, 22Rv1, 72 h) is on record?
Answer: 11.8 ± 0.91 µM
